Data set [1] is described as follows: electroshock test (MES), rat. Type of data set: in vivo. The following applies: read-out: ED50 (limits) RAT MES. The method, then: (§1) The pharmacological activity of the compound of the invention has been determined according to the following procedures. Its anticonvulsant activity was determined in the metrazol antagonism test in both mice and rats (MMS) (Soaje-Echaque E; Lim RKS, J Pharmac Exp Ther 1962, 138, 224; Desmedt LKC; Niemegeers CJE; Lewi PJ; Janssen PAJ, Arzneim-Forsch (Drug Res), 1976, 26, 1592) and the electroshock test (MES) (Perry JK; Tower DB; Woodbury DM; Walter RD, "Experimental Models of Epilepsy", editor Purpura DP; Raven Press: New York, 1972, 434).

A short description of data set [2]: metrazol antagonism test (MMS), rat. Type of data set: in vivo. The note with it: read-out: ED50 (limits) RAT MMS. How it is done:
as §1

Data set [3] in a line: electroshock test (MES), mouse. Type of data set: in vivo. How it is done:
as §1

Data set [4] can be described thus: metrazol antagonism test (MMS), mouse. Type of data set: in vivo. The following applies: read-out: ED50 (limits) MOUSE MMS. How it is done:
as §1

Data set [5] can be described thus: rotarod test (neurotoxicity), mouse. The following applies: for TD50 ip at time of peak effect / TD50 po at 1 hour: rotarod; for TD50 ip at time of peak effect: at time of peak anticonvulsant effect; for TD50 po at 1 hour: dose at which 50% of trained animals fall off the rotarod. How it is done: An assessment of the neurotoxicity of the compound was carried out in mice using the rotarod test (Collier, HOJ; Fieller, EC; Hall, RA, Analyst, 1949, 74, 592).
^a Dose at which 50% of trained animals fall off the rotarod.
^b Protective index is calculated by dividing the TD50 (ip at
time of peak anticonvulsant effect) by the ED50 under the same
A general note: The rotarod test checks motor coordination on a turning rod.

A short description of data set [6]: anticonvulsant tests (MES and MMS), rat and mouse, summary. Type of data set: in vivo. The note with it: for anticonvulsant activity: electrically and chemically induced seizures. How it is done:
as §1

Where [7] appears, read: ip, mouse, MES, i.p., at time of peak effect, read-out: ED50 (limits) MES at time of peak effect.
[8] abbreviates: mouse, MES, oral, t=1 hour, read-out: ED50 (limits) MOUSE MES.
Where [9] appears, read: mouse, in vivo, ip, protective index (PI).

Structures are written as SMILES.

By ED50 is commonly meant the dose at which the effect has come halfway, by size or by number of responders. Regarding `NC(=O)N1c2ccccc2C=Cc2ccccc21` [carbamazepine], the ED50 in data set [1] (rat, MES, oral, t=1 hour) amounted to 4 mg/kg; in data set [2] (rat, MMS, oral, t=1 hour), 3 mg/kg; in data set [3] (setting [7]), 6 mg/kg; in data set [3] (setting [8]), 20 mg/kg; in data set [4] (mouse, MMS, oral, t=1 hour), 11 mg/kg. Further, the “Time of peak effect” value in data set [3] (mouse, MES, i.p.) turned out to be 20 min. In data set [5] (in vivo, ip), the “protective index (PI)” value was 11.1. The selectivity ratio in data set [5] (setting [9]) is 11. The “TD50 ip at time of peak effect” value in data set [5] (ip) was 67(29-108) mg/kg. Besides, the “TD50 po at 1 hour” value in data set [5] is listed as 166(104-282) mg/kg.

As for `CCC1(c2ccccc2)C(=O)NC(=O)NC1=O` [phenobarbital], the ED50 in data set [1] (Rattus norvegicus, po, 1 h) was 9 mg/kg; in data set [2] (Rattus norvegicus, po, 1 h), 4 mg/kg; in data set [3] (Mus musculus, ip, read-out: ED50 (limits) MES at time of peak effect), 18 mg/kg; in data set [3] (Mus musculus, po, 1 h, read-out: ED50 (limits) MOUSE MES), 12 mg/kg; in data set [4] (Mus musculus, po, 1 h), 4 mg/kg. The “Time of peak effect” value in data set [3] (mouse, MES, i.p.) is 30 min. Besides, the “TD50 ip at time of peak effect” value in data set [5] (ip) is reported as 86(54-140) mg/kg. For the same molecule, the “TD50 po at 1 hour” value in data set [5] is given as 68(52-92) mg/kg.

`O=C1NC(=O)C(c2ccccc2)(c2ccccc2)N1` [phenytoin]: the ED50 in data set [1] (rat, MES, oral, t=1 hour) was found to be 14 mg/kg; in data set [2] (rat, MMS, oral, t=1 hour) it was 12 mg/kg; in data set [3] (setting [7]) it was 8 mg/kg; in data set [3] (setting [8]) it was 8 mg/kg; in data set [4] (mouse, MMS, oral, t=1 hour) it was 8 mg/kg. In addition, in data set [3] (mouse, MES, i.p.), the “Time of peak effect” value was 60 min. For the same molecule, the selectivity ratio in data set [5] (in vivo, ip) is 7. Moreover, the “TD50 ip at time of peak effect” value in data set [5] (ip) was 56(27-74) mg/kg. The “TD50 po at 1 hour” value in data set [5] is listed as 216(154-239) mg/kg.

With `NCc1nnc(-c2ccccc2-c2ccccc2)s1` [Example, 2-Aminomethyl-5-(2-biphenylyl)-1,3,4-thiadiazole], the ED50 worked out at 10 mg/kg in data set [1] (rat, MES, oral, t=1 hour); 9 mg/kg in data set [2] (rat, MMS, oral, t=1 hour); 7 mg/kg in data set [3] (setting [7]); 22 mg/kg in data set [3] (setting [8]); 20 mg/kg in data set [4] (mouse, MMS, oral, t=1 hour). The “Time of peak effect” value in data set [3] (mouse, MES, i.p.) stood at 10 min. Besides, in data set [5] (setting [9]), the selectivity ratio was found to be 6.5. For the same molecule, the “TD50 ip at time of peak effect” value in data set [5] (ip) is 45(23-68) mg/kg. Also, the “TD50 po at 1 hour” value in data set [5] is recorded as 318(230-471) mg/kg. In addition, the rate of absorption result in data set [6] (inferred from time of peak effect, ip and oral, in words) was “very rapid rate of absorption”. In data set [6] (intraperitoneal and oral routes, after dosing), the “time of peak effect by both methods of administration” value was “ten and twenty”. Also, the anticonvulsant activity entry was “potent anticonvulsant activity” in data set [6] (rat and mouse, in words, listed as compound of Formula 1); “potent anticonvulsant, blocking both electrically and chemically induced seizures” in data set [6] (rat and mouse, in words, listed as the compound). In data set [6] (rat and mouse, in words), the “effectiveness by intraperitoneal and oral routes” value is “effective by both the intraperitoneal and oral routes”. Moreover, in data set [6] (rat and mouse, in words), the “potency relative to established anticonvulsant drugs” value is recorded as “comparable with established anticonvulsant drugs”.

These data come from patent publication US4782072A, “Thiadiazole derivative” (Reckitt & Colman Products Limited, priority 1986, dated 1988).
